Assay results published in article PMC9967700, “Metabolism-Guided Optimization of Tryptophanol-Derived Isoindolinone p53 Activators” (Pharmaceuticals, 2023).
Read-outs that look alike come from different tables or passages of the source.

How the values were obtained:
[1] = molecular target: T1, wt p53 core domain (DNA Binding Domain; p53DBD; residues 94–312) (Homo sapiens, UniProt P04637); experiment: Differential scanning fluorimetry (DSF) thermostability; details: 13d 2.5 mM, MQ 2 mM; for Tm of the wt p53DBD: 5% DMSO, mean ± SD, three assays
T1 construct: residues 94–312; host or cells: E. coli BL21 (DE3)-[pLys-S]
Experimental: Expression of wt p53 core domain. The wt p53DBD was expressed in E. coli BL21 (DE3)-[pLys-S] in fusion with an N-terminal 21-residue tag containing the hexa-histidyl peptide (His6) and the thrombin recognition sequence, using the pET15b-based expression construct.
For protein expression 10 mL of an overnight (ON) culture was used to inoculate 1 L of LB medium supplemented with 1 mL of ampicillin 100 mg/mL and 1mL of zinc sulphate 100 mM. Culture medium was incubated at 37 °C, 140 rpm till an OD600nm of ~0.5. Protein expression was then induced by adding 0.5 mL of isopropyl β-D-1-thiogalactopyranoside (IPTG) 1M (Cfinal = 0.5 mM) and bacterial growth at 27 °C, 120 rpm ON. E. coli cells were pelleted by centrifugation for 10 min, 4000 rpm, at 4 °C. The cellular pellet was resuspended in 10 mL of Lysis buffer (Sodium phosphate 50 mM; NaCl 300 mM; glycerol 10%, pH 7.4) supplemented with 1mg/mL Lysozyme (Biochemica Applichem Panreac), 1 mM of phenylmethanesulfonyl fluoride (PMSF) (Merck), 5 µg of DNAse I (Panreac applichem) and 0.8% of Triton X-100 (Merck). After a first step of chemical lysis (30 min incubation, at 4 °C), cells were further disrupted by four cycles of sonication, at 4 °C, during 60 s at 50% duty free cycle on a Vibra Cell (Media Cibernetics). The lysate was subsequently cleared by centrifugation at 10,000 rpm, 40 min, at 4 °C and the supernatant containing the soluble proteins were collected.
Purification of human wt p53DBD and His6-tag removal. Immobilized Metal Affinity Chromatography (IMAC) was performed to purify the wt p53DBD using a nickel-nitrilotriacetic acid (Ni-NTA) agarose resin (QIAGEN). Briefly, 1 mL of Ni^2+ resin was pre-equilibrated using MilliQ water (3 × 1 mL) and Lysis buffer containing 10 mM imidazole (3 × 1 mL). The soluble fraction of cellular lysate was supplemented with 6.8 µL of β-mercaptoethanol and 33.2 µL of imidazole 3 M to obtain the final concentrations of […] and 10 mM, respectively. The lysate was added to the pre-equilibrated resin and protein binding was performed by incubation on an orbital shaker for one hour at 4 °C. The suspension was added to a 9 cm polypropylene conical column (Poly-Prep columns; BioRad) and protein purification was performed by gravity flow with an imidazole gradient consisting of three washing steps (2 × 5 mL of Lysis buffer, 20 mM imidazole; 2 × 5 mL of Lysis buffer, 50 mM imidazole; and 1 × 2.5 mL Lysis buffer, 75 mM imidazole) and an elution step with 5 × 500 µL of Lysis buffer, 250 mM imidazole. Protein eluted fractions were assessed by SDS-PAGE and Coomassie staining. Size exclusion chromatography was performed on the pooled protein eluted fractions, using an AKTA prime plus system (GE Healthcare) equipped with a UV detector (280 nm), a HiLoad 16/60, Superdex 200 prep grade column (GE Healthcare) and SEC buffer (25 mM potassium phosphate buffer, 150 mM NaCl, pH 7.5). The fractions corresponding to the wt p53DBD monomers were collected and treated with thrombin (8 units of thrombin/mg wt p53DBD). The thrombin cleavage was conducted for 18 h at rt at pH 7.4 in the assay buffer recommended by the supplier. Before and after digestion protein concentration was determined through Bradford method.
Thermostability of wt p53DBD core domain assessed by differential scanning fluorimetry (DSF). An amount of 5 μg of thrombin-cleaved wt p53DBD was incubated with testing compounds (2.5 mM) in 25 mM potassium phosphate buffer and 150 mM NaCl, pH 7.5 in a final volume of 50 µL containing 2 µL of 1 mM DTT or 1 mM TCEP to promote p53 core domain redox control, and Sypro Orange at 2.5x final concentration. The fluorescence was assessed on a C1000 Touch thermal cycler equipped with a CFX96 optical reaction module (BioRad) and the FRET channel (λexc 450–490 nm and λem 560–580 nm). Temperature was ramped from 20 to 90 °C with a rate of 0.2 °C/12 sec. The Tm values were calculated using Origin 8 Software. […]

HCT116 p53+/+ cells = experiment: Antiproliferative activity, sulforhodamine B (SRB) assay; assay type: cell-based, human
Experimental: (§1) Tumor cells were cultured in RPMI-1640 with UltraGlutamine (Lonza, VWR), supplemented with 10% fetal bovine serum (FBS; Gibco, Alfagene) and maintained in a humidified incubator at 37 °C with 5% CO2. Cell lines were seeded in 96-well plates at the cells/well density of 5.0 × 10^3.

HCT116 p53−/− cells = experiment: as above; assay type: cell-based, human; details: 48 h treatment, mean ± SEM of 3–5 independent experiments, read-out: HCT116 p53−/− GI50
Experimental: as §1

T1 sequence (P04637 94-312): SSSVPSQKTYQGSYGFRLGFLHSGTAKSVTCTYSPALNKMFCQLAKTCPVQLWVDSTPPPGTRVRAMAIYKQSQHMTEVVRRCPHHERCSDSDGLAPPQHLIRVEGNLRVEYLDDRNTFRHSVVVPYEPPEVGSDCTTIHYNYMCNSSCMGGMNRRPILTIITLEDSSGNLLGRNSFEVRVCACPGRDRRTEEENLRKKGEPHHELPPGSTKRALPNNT

ΔTm of the wt p53DBD ([1]; DTT 1 mM): did not increase the wt p53DBD Tm
Tm of the wt p53DBD ([1]; DTT (1 mM)): 40.51 ± 0.09 °C
ΔTm at 2500 µM ([1]; TCEP 1 mM): 10.4 °C
ΔTm of the wt p53DBD ([1]; TCEP 1 mM): 10.4 °C
Tm of the wt p53DBD ([1]; TCEP (1 mM)): 51.38 ± 0.38 °C
GI50 (HCT116 p53+/+ cells; Homo sapiens, HCT-116, 48 h treatment, mean ± SEM of 3–5 independent experiments, read-out: HCT116 p53+/+ GI50): 4 ± 0.5 µM
GI50 (HCT116 p53−/− cells): 7.45 ± 0.95 µM
GI50 (HCT116 p53−/− cells; Homo sapiens, HCT-116, 48 h): 7.5 µM
SMILES: CCCn1c(Br)c(C[C@H]2CO[C@]3(c4ccccc4)c4ccccc4C(=O)N23)c2ccccc21 [Compound 13d, (3S, 9bR)-3-((2-bromo-1-propyl-1H-indol-3-yl)methyl)-9b-phenyl-2,3-dihydrooxazolo[2,3-a]isoindol-5(9bH)-one]
more active than SLMP53-2 (7) (HCT116 p53+/+ cells; HCT116 p53+/+): 2 fold
S.I. (selectivity index) (HCT116 p53+/+ cells; HCT116 p53−/− versus HCT116 p53+/+): 1.9
